According to the NIST ThermoML archive (doi:10.1016/j.jct.2012.11.032):
± gives the expanded uncertainty stated by the source.

Experiment: xn = mol fraction of the nth substance listed
Conditions: 101 kPa, Liquid; for speed of sound: Sing-around technique in a fixed-path interferometer; for mass density: Vibrating tube method

CCCCCCCCCCCC[n+]1ccn(C)c1.[Cl-] [1-dodecyl-3-methylimidazolium chloride] + O
Conditions | mass density [kg/m3] | speed of sound [m/s]
298 K, x1 = 2.7e-05 | 997.065 ± 0.1 | –
298 K, x1 = 3e-05 | 997.081 ± 0.1 | –
298 K, x1 = 4.8e-05 | 997.081 ± 0.1 | –
298 K, x1 = 7.4e-05 | 997.07 ± 0.1 | –
298 K, x1 = 9.4e-05 | 997.061 ± 0.1 | –
298 K, x1 = 0.000109 | 997.064 ± 0.1 | –
298 K, x1 = 0.000129 | 997.078 ± 0.1 | –
298 K, x1 = 0.000145 | 997.058 ± 0.1 | –
298 K, x1 = 0.000163 | 997.076 ± 0.1 | –
298 K, x1 = 0.000181 | 997.056 ± 0.1 | –
298 K, x1 = 0.000208 | 997.055 ± 0.1 | –
298 K, x1 = 0.000234 | 997.049 ± 0.1 | –
298 K, x1 = 0.000248 | 997.059 ± 0.1 | –
298 K, x1 = 0.000273 | 997.045 ± 0.1 | –
298 K, x1 = 0.000286 | 997.042 ± 0.1 | –
298 K, x1 = 0.000302 | 997.023 ± 0.1 | –
298 K, x1 = 0.000319 | 997.039 ± 0.1 | –
298 K, x1 = 0.000341 | 997.023 ± 0.1 | –
298 K, x1 = 0.000384 | 997.011 ± 0.1 | –
298 K, x1 = 0.000407 | 996.995 ± 0.1 | –
298 K, x1 = 0.000428 | 996.98 ± 0.11 | –
298 K, x1 = 0.0428 | – | 1500.7 ± 1.2
303 K, x1 = 2.7e-05 | 995.678 ± 0.1 | –
303 K, x1 = 3e-05 | 995.688 ± 0.1 | –
303 K, x1 = 4.8e-05 | 995.688 ± 0.1 | –
303 K, x1 = 7.4e-05 | 995.68 ± 0.11 | –
303 K, x1 = 9.4e-05 | 995.666 ± 0.1 | –
303 K, x1 = 0.000109 | 995.667 ± 0.1 | –
303 K, x1 = 0.000129 | 995.679 ± 0.1 | –
303 K, x1 = 0.000145 | 995.66 ± 0.11 | –
303 K, x1 = 0.000163 | 995.674 ± 0.1 | –
303 K, x1 = 0.000181 | 995.656 ± 0.1 | –
303 K, x1 = 0.000208 | 995.653 ± 0.1 | –
303 K, x1 = 0.000234 | 995.647 ± 0.1 | –
303 K, x1 = 0.000248 | 995.65 ± 0.11 | –
303 K, x1 = 0.000273 | 995.635 ± 0.1 | –
303 K, x1 = 0.000286 | 995.632 ± 0.1 | –
303 K, x1 = 0.000302 | 995.606 ± 0.1 | –
303 K, x1 = 0.000319 | 995.625 ± 0.1 | –
303 K, x1 = 0.000341 | 995.608 ± 0.1 | –
303 K, x1 = 0.000384 | 995.594 ± 0.1 | –
303 K, x1 = 0.000407 | 995.571 ± 0.1 | –
303 K, x1 = 0.000428 | 995.568 ± 0.1 | –
303 K, x1 = 0.0027 | – | 1509.5 ± 1.2
303 K, x1 = 0.003 | – | 1509.5 ± 1.2
303 K, x1 = 0.0048 | – | 1509.8 ± 1.2
303 K, x1 = 0.0074 | – | 1510.1 ± 1.2
303 K, x1 = 0.0094 | – | 1510.4 ± 1.2
303 K, x1 = 0.0109 | – | 1510.6 ± 1.2
303 K, x1 = 0.0129 | – | 1510.8 ± 1.2
303 K, x1 = 0.0145 | – | 1511 ± 1.2
303 K, x1 = 0.0163 | – | 1511.2 ± 1.2
303 K, x1 = 0.0181 | – | 1511.4 ± 1.2
303 K, x1 = 0.0208 | – | 1511.8 ± 1.2
303 K, x1 = 0.0234 | – | 1512 ± 1.2
303 K, x1 = 0.0248 | – | 1512.1 ± 1.2
303 K, x1 = 0.0273 | – | 1512.3 ± 1.2
303 K, x1 = 0.0286 | – | 1512.3 ± 1.2
303 K, x1 = 0.0302 | – | 1512.4 ± 1.2
303 K, x1 = 0.0319 | – | 1512.5 ± 1.2
303 K, x1 = 0.0341 | – | 1512.6 ± 1.2
303 K, x1 = 0.0384 | – | 1512.5 ± 1.2
303 K, x1 = 0.0407 | – | 1512.7 ± 1.2
303 K, x1 = 0.0428 | – | 1512.7 ± 1.2
308 K, x1 = 2.7e-05 | 994.072 ± 0.1 | –
308 K, x1 = 3e-05 | 994.075 ± 0.1 | –
308 K, x1 = 4.8e-05 | 994.073 ± 0.1 | –
308 K, x1 = 7.4e-05 | 994.068 ± 0.1 | –
308 K, x1 = 9.4e-05 | 994.05 ± 0.11 | –
308 K, x1 = 0.000109 | 994.047 ± 0.1 | –
308 K, x1 = 0.000129 | 994.059 ± 0.1 | –
308 K, x1 = 0.000145 | 994.046 ± 0.1 | –
308 K, x1 = 0.000163 | 994.052 ± 0.1 | –
308 K, x1 = 0.000181 | 994.039 ± 0.1 | –
308 K, x1 = 0.000208 | 994.032 ± 0.1 | –
308 K, x1 = 0.000234 | 994.027 ± 0.1 | –
308 K, x1 = 0.000248 | 994.022 ± 0.1 | –
308 K, x1 = 0.000273 | 994.008 ± 0.1 | –
308 K, x1 = 0.000286 | 994.004 ± 0.1 | –
308 K, x1 = 0.000302 | 993.979 ± 0.1 | –
308 K, x1 = 0.000319 | 993.993 ± 0.1 | –
308 K, x1 = 0.000341 | 993.986 ± 0.1 | –
308 K, x1 = 0.000384 | 993.958 ± 0.1 | –
308 K, x1 = 0.000407 | 993.935 ± 0.1 | –
308 K, x1 = 0.000428 | 993.939 ± 0.1 | –
308 K, x1 = 0.0027 | – | 1520.1 ± 1.2
308 K, x1 = 0.003 | – | 1520.2 ± 1.2
308 K, x1 = 0.0048 | – | 1520.4 ± 1.2
308 K, x1 = 0.0074 | – | 1520.7 ± 1.2
308 K, x1 = 0.0094 | – | 1521 ± 1.2
308 K, x1 = 0.0109 | – | 1521.1 ± 1.2
308 K, x1 = 0.0129 | – | 1521.3 ± 1.2
308 K, x1 = 0.0145 | – | 1521.5 ± 1.2
308 K, x1 = 0.0163 | – | 1521.7 ± 1.2
308 K, x1 = 0.0181 | – | 1521.9 ± 1.2
308 K, x1 = 0.0208 | – | 1522.2 ± 1.2
308 K, x1 = 0.0234 | – | 1522.4 ± 1.2
308 K, x1 = 0.0248 | – | 1522.5 ± 1.2
308 K, x1 = 0.0273 | – | 1522.7 ± 1.2
308 K, x1 = 0.0286 | – | 1522.8 ± 1.2
308 K, x1 = 0.0302 | – | 1522.8 ± 1.2
308 K, x1 = 0.0319 | – | 1522.9 ± 1.2
308 K, x1 = 0.0341 | – | 1523 ± 1.2
308 K, x1 = 0.0384 | – | 1522.8 ± 1.2
308 K, x1 = 0.0407 | – | 1523 ± 1.2
308 K, x1 = 0.0428 | – | 1523 ± 1.2
313 K, x1 = 2.7e-05 | 992.261 ± 0.11 | –
313 K, x1 = 3e-05 | 992.046 ± 0.11 | –
313 K, x1 = 7.4e-05 | 992.253 ± 0.11 | –
313 K, x1 = 9.4e-05 | 992.137 ± 0.11 | –
313 K, x1 = 0.000109 | 992.207 ± 0.11 | –
313 K, x1 = 0.000129 | 992.221 ± 0.11 | –
313 K, x1 = 0.000145 | 992.226 ± 0.11 | –
313 K, x1 = 0.000163 | 992.224 ± 0.11 | –
313 K, x1 = 0.000181 | 992.217 ± 0.11 | –
313 K, x1 = 0.000208 | 992.206 ± 0.11 | –
313 K, x1 = 0.000234 | 992.203 ± 0.11 | –
313 K, x1 = 0.000248 | 992.194 ± 0.11 | –
313 K, x1 = 0.000273 | 992.178 ± 0.11 | –
313 K, x1 = 0.000286 | 992.177 ± 0.11 | –
313 K, x1 = 0.000302 | 992.159 ± 0.11 | –
313 K, x1 = 0.000319 | 992.158 ± 0.11 | –
313 K, x1 = 0.000341 | 992.147 ± 0.11 | –
313 K, x1 = 0.000384 | 992.121 ± 0.11 | –
313 K, x1 = 0.000407 | 992.068 ± 0.11 | –
313 K, x1 = 0.000428 | 992.103 ± 0.11 | –
313 K, x1 = 0.0027 | – | 1529.2 ± 1.2
313 K, x1 = 0.003 | – | 1529.2 ± 1.2
313 K, x1 = 0.0074 | – | 1529.7 ± 1.2
313 K, x1 = 0.0094 | – | 1530 ± 1.2
313 K, x1 = 0.0109 | – | 1530.1 ± 1.2
313 K, x1 = 0.0129 | – | 1530.3 ± 1.2
313 K, x1 = 0.0145 | – | 1530.4 ± 1.2
313 K, x1 = 0.0163 | – | 1530.6 ± 1.2
313 K, x1 = 0.0181 | – | 1530.8 ± 1.2
313 K, x1 = 0.0208 | – | 1531.1 ± 1.2
313 K, x1 = 0.0234 | – | 1531.3 ± 1.2
313 K, x1 = 0.0248 | – | 1531.4 ± 1.2
313 K, x1 = 0.0273 | – | 1531.5 ± 1.2
313 K, x1 = 0.0286 | – | 1531.6 ± 1.2
313 K, x1 = 0.0302 | – | 1531.6 ± 1.2
313 K, x1 = 0.0319 | – | 1531.7 ± 1.2
313 K, x1 = 0.0341 | – | 1531.8 ± 1.2
313 K, x1 = 0.0384 | – | 1531.6 ± 1.2
313 K, x1 = 0.0407 | – | 1531.8 ± 1.2
313 K, x1 = 0.0428 | – | 1531.8 ± 1.2
